Columns and labels:
Assay type in all cases: in vivo
[1] = system: Black Bean Aphid [Aphis fabae (Scop.)]; assay: Black bean aphid spray test on nasturtium (BBA), 48 hours; details: percent of test compound in sprayed solution
Procedure, shortened: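 LC50, given as percent test compound in the sprayed liquid, was calculated from dosage-mortality curves using concentrations from 0.05% downward. Sprays in 50:50 acetone-water went to runoff on ~5 cm nasturtiums carrying 25-50 aphids of mixed ages, one day after infestation. Deaths were counted 48 h later under greenhouse conditions.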

[2] = system: Housefly [Musca domestica]; assay: Housefly contact mortality in dishes (HF), 48 hours; details: μg of test compound per 25 female flies
Procedure, shortened: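 Dry-film exposure of 25 female houseflies per cage, 48 h; LC50 as μg per 25 flies.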

[3] = system: Tobacco Budworm [Heliothis virescens (Fabricius)] eggs; assay: Tobacco budworm eggs (TBW-E); details: percent in solution; 2-day old eggs
Procedure, shortened: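 Mortality of dipped eggs served as read-out, recorded after untreated controls hatched and began feeding. Treatments used acetone solutions from 0.1% downward, with eggs incubated at 78° F; LC50 is expressed as percent of compound in the solution.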

[4] = system: Maize weevil [Sitophilus zeamais (Motschulsky)]; assay: Maize weevil on dipped corn seeds (MW), 48 hours; details: percent in solution, adult weevils
Description: The compounds in Tables 1 and 2 above were tested for insecticidal activity using the following testing procedures. LC50 values, based on the results of these tests and calculated according to dosage-mortality curves, are expressed in Table 3.
Maize weevil [Sitophilus zeamais (Motschulsky)]:
Test compounds were diluted in a 50:50 acetone:water solution. Four corn seeds [Zea mays (L.)] which had been immersed in test solutions for 2-3 seconds and allowed to dry were placed in containers together with 10 adult weevils. The containers were covered and kept at a temperature of about 25° C. Mortality was recorded after 48 hours. Test concentrations ranged from 0.01% down to that at which 50% mortality occurred. The LC50 values are expressed below in Table 3 under the heading "MW" in terms of percent of the test compound in solution.

[5] = system: Cabbage Looper [Trichoplusia ni (Hubner)]; assay: Cabbage looper leaf dip (CL), 3-5 days; details: percent in solution, second-instar larvae
Procedure, shortened: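 Steps: dilute compound in 50-50 acetone-water from 0.1% downward; immerse cotyledon pieces 2-3 s and dry; place in humid petri dishes with five second-instar larvae; record mortality at 3-5 days. Dosage-mortality curves yield LC50 as percent in solution.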

Structure (SMILES) | LC50 BBA [1] | LC50 HF [2] | LC50 TBW E (eggs) [3] | LC50 MW [4] | LC50 CL [5]
Clc1ccc(N=C(OCc2cccc(Oc3ccccc3)c2)C2CCC2)cc1 [Compound 8] | 0.03% | 50 µg | > 0.1% | > 0.01% | 0.01%
CC(C)(C)C(=Nc1cccc(C(F)(F)F)c1)OCc1cccc(Oc2ccccc2)c1 [Compound 88] | > 0.05% | > 100 µg | > 0.1% | > 0.01% | 0.018%
Fc1ccc(Oc2cccc(COC(=Nc3ccc(F)c(Cl)c3)C3CC3)c2)cc1 [Compound 116] | – | 15 µg | – | > 0.01% | 0.00025%
CCc1ccc(N=C(OCc2cccc(Oc3ccccc3)c2)C(C)(C)C)cc1 [Compound 163] | > 0.05% | > 100 µg | > 0.1% | > 0.01% | 0.004%
CC(C)C(=Nc1ccc(F)c(Cl)c1)OCc1cccc(Oc2cccc(Cl)c2)c1 [Compound 203] | 0.006% | 43 µg | 0.06% | > 0.01% | 0.0025%
CC(C)C(=Nc1cc(F)c(Cl)cc1Cl)OCc1ccc(F)c(Oc2ccc(F)cc2)c1 [Compound 292] | – | 41 µg | 0.05% | > 0.01% | 0.00075%
Fc1ccc(Oc2cccc(COC(=Nc3cccc(C(F)(F)F)c3)C3CC3)c2)cc1 [Compound 294] | – | > 100 µg | > 0.1% | > 0.01% | 0.017%
CC(C)C(=Nc1ccc(F)c(Br)c1)OCc1ccc(F)c(Oc2ccccc2)c1 [Compound 299] | – | 8 µg | 0.017% | > 0.01% | 0.0005%
CC(C)C(=Nc1ccc(C(C)(C)C)cc1)OCc1ccc(F)c(Oc2ccc(Cl)cc2)c1 [Compound 301] | – | > 100 µg | > 0.1% | > 0.01% | 0.008%
CC(C)C(=Nc1cccc([N+](=O)[O-])c1)OCc1cccc(Oc2ccccc2)c1 [Compound 302] | – | 15 µg | > 0.1% | > 0.01% | 0.003%
CC(C)C(=Nc1c(F)c(F)cc(F)c1F)OCc1cccc(Oc2ccc(F)cc2)c1 [Compound 304] | – | > 100 µg | > 0.1% | > 0.01% | 0.0024%
CC(Br)C(=Nc1ccc2c(c1)OCO2)OCc1cccc(Oc2ccccc2)c1 (stereo not drawn) [Compound 306] | – | > 100 µg | 0.1% | > 0.01% | 0.005%
CC(C)C(=Nc1ccc([N+](=O)[O-])c(C(F)(F)F)c1)OCc1cccc(Oc2ccccc2)c1 [Compound 307] | – | > 100 µg | 0.08% | > 0.01% | 0.002%
CC(C)C(=Nc1ccc(F)c(I)c1)OCc1ccc(F)c(Oc2ccccc2)c1 [Compound 334] | 0.0006% | 9 µg | 0.013% | > 0.01% | 0.0007%
CC(C)c1ccc(N=C(OCc2cccc(Oc3ccccc3)c2)C2CCC2)cc1 [Compound 339] | 0.03% | > 100 µg | > 0.1% | > 0.01% | 0.017%
CC(C)C(=Nc1ccc(Cl)c(C(F)(F)F)c1)OCc1ccc(F)c(Oc2ccc(F)cc2)c1 [Compound 340] | 0.001% | 34 µg | 0.04% | 0.0069% | 0.00037%
CC(C)C(=Nc1cccc(Cl)c1)OCc1ccc(F)c(Oc2ccc(F)cc2)c1 [Compound 341] | 0.0005% | 4 µg | 0.023% | > 0.01% | 0.0005%
CC(C)C(=Nc1cccc(F)c1)OCc1ccc(F)c(Oc2ccc(F)cc2)c1 [Compound 342] | 0.0006% | 4.1 µg | 0.04% | > 0.01% | 0.0008%

Structure (SMILES) | LC50 BBA [1] | LC50 HF [2] | LC50 TBW E (eggs) [3] | LC50 MW [4] | LC50 CL [5]
Cc1ccc(Oc2cccc(COC(=Nc3ccc(C(C)(C)C)cc3)C(C)C)c2)cc1 [Compound 344] | 0.008% | > 100 µg | > 0.1% | > 0.01% | 0.024%
COc1ccc(Oc2cccc(COC(=Nc3ccc(C(C)(C)C)cc3)C(C)C)c2)cc1 [Compound 345] | 0.006% | > 100 µg | > 0.1% | > 0.01% | 0.018%
CCOc1ccc(N=C(OCc2cccc(Oc3ccccc3)c2)C(C)C)cc1Cl [Compound 368] | 0.001% | < 100 µg | 0.04% | > 0.01% | 0.002%
CCOc1ccc(N=C(OCc2cccc(Oc3ccccc3)c2)C(C)C)cc1 [Compound 371] | 0.0004% | < 100 µg | > 0.1% | > 0.01% | 0.0022%
CCOc1ccc(N=C(OCc2ccc(F)c(Oc3ccc(Cl)cc3)c2)C(C)C)cc1 [Compound 372] | 0.001% | > 100 µg | > 0.1% | > 0.01% | > 0.1%
CCOc1ccc(N=C(OCc2ccc(F)c(Oc3ccccc3)c2)C(C)C)cc1 [Compound 373] | 0.001% | < 100 µg | > 0.1% | > 0.01% | > 0.1%
CC(C)C(=Nc1ccc(I)c(Cl)c1)OCc1cccc(Oc2ccc(F)cc2)c1 [Compound 374] | 0.0008% | < 100 µg | 0.02% | > 0.01% | 0.00058%
CC(C)C(=Nc1cccc(OC(F)(F)F)c1)OCc1ccc(F)c(Oc2ccc(Cl)cc2)c1 [Compound 436] | 0.0006% | < 100 µg | < 0.1% | > 0.01% | –
Fc1ccc(COC(=Nc2ccc(C(F)(F)F)cc2)C2CC2)cc1Oc1ccccc1 [Compound 443] | 0.0003% | < 100 µg | – | < 0.01% | 0.00015%
Fc1ccc(COC(=Nc2ccc(C(F)(F)F)cc2)C2CC2)cc1Oc1ccc(Cl)cc1 [Compound 444] | 0.0006% | > 100 µg | – | > 0.01% | 0.00015%
CC(C)C(=Nc1ccc(F)c(I)c1)OCc1cccc(Oc2ccc(F)cc2)c1 [Compound 449] | – | 13 µg | 0.025% | 0.0075% | 0.0001%
CC(C)C(=Nc1cccc(C(F)(F)F)c1)OCc1cccc(Oc2ccc(Cl)cc2)n1 [Compound 477] | – | 20 µg | > 0.1% | 0.0076% | 0.0003%
CC(C)C(=Nc1ccc(Br)cc1)OCc1coc(Cc2ccccc2)c1 [Compound 478] | – | 15 µg | > 0.1% | > 0.01% | 0.0037%
CC(C)C(=Nc1cccc(C(F)(F)F)c1)OCc1coc(Cc2ccccc2)c1 [Compound 482] | – | 36 µg | > 0.1% | > 0.01% | 0.01%
CC(C)C(=Nc1ccc2c(c1)OCO2)OCc1coc(Cc2ccccc2)c1 [Compound 483] | – | 6 µg | 0.05% | > 0.01% | 0.001%
CC(C)C(=Nc1ccc(F)cc1F)OCc1coc(Cc2ccccc2)c1 [Compound 486] | – | 15 µg | > 0.1% | > 0.01% | > 0.1%
COCc1c(F)c(F)c(COC(=Nc2ccc3c(c2)OCO3)C(C)C)c(F)c1F [Compound 501] | > 0.05% | 20 µg | > 0.1% | – | 0.00045%
CC(C)C(=Nc1cccc(C(F)(F)F)c1)OCc1ccnc(Oc2ccc(F)cc2)c1 [Compound 508] | – | > 100 µg | > 0.1% | > 0.01% | 0.013%
